Test results from PubChem BioAssay (NCI).
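96-well plates; 48 h exposure; 5 concentrations. Endpoints by linear interpolation between flanking doses. Not reached: highest tested concentration assigned. At the TGI there is no net growth.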

Tests used:
Assay in all cases: inhibition of tumour cell growth, NCI panel, 48 h
PC-3 prostate = tested on: PC-3 prostate
BT-549 breast = tested on: BT-549 breast
HT29 colon = tested on: HT29 colon
T-47D breast = tested on: T-47D breast
CAKI-1 renal = tested on: CAKI-1 renal
SN12C renal = tested on: SN12C renal
MDA-N = tested on: MDA-N
TK-10 renal = tested on: TK-10 renal
OVCAR-5 ovarian = tested on: OVCAR-5 ovarian
OVCAR-3 ovarian = tested on: OVCAR-3 ovarian
MCF7 breast = tested on: MCF7 breast
SK-MEL-2 melanoma = tested on: SK-MEL-2 melanoma
HCT-116 colon = tested on: HCT-116 colon
SK-MEL-5 melanoma = tested on: SK-MEL-5 melanoma
LOX IMVI melanoma = tested on: LOX IMVI melanoma
MALME-3M melanoma = tested on: MALME-3M melanoma

Row | Structure (SMILES) | TGI (PC-3 prostate) [µM] | TGI (BT-549 breast) [µM] | TGI (HT29 colon) [µM] | TGI (T-47D breast) [µM] | TGI (CAKI-1 renal) [µM] | TGI (SN12C renal) [µM] | TGI (MDA-N) [µM] | TGI (TK-10 renal) [µM] | TGI (OVCAR-5 ovarian) [µM] | TGI (OVCAR-3 ovarian) [µM] | TGI (MCF7 breast) [µM] | TGI (SK-MEL-2 melanoma) [µM] | TGI (HCT-116 colon) [µM] | TGI (SK-MEL-5 melanoma) [µM] | TGI (LOX IMVI melanoma) [µM] | TGI (MALME-3M melanoma) [µM]
1 | COc1cc(/C=C/C(=O)N[C@@H]2C(=O)N3[C@@H]2SC(C)(C)[C@@H]3C(=O)O)cc(OC)c1OC | > 100 | > 100 | > 100 | > 100 | > 100 | > 100 | > 100 | > 100 | > 100 | > 100 | > 100 | > 100 | > 100 | > 100 | > 100 | –
2 | COC(=O)c1ccc(CCc2cc(O)c(Br)cc2O)cc1 | 20.6 | 15.8 | 32.8 | 51.1 | 23.2 | 28.3 | 30 | 27.6 | 33.8 | 19.8 | 28.1 | 39.1 | 14.3 | 23.7 | 27.2 | 32.4
3 | O=c1[nH]c(Nc2cccc(Br)c2)nc2nc[nH]c12 | > 100 | > 100 | > 100 | > 100 | > 100 | – | > 100 | > 100 | > 100 | > 100 | > 100 | > 100 | > 100 | > 100 | > 100 | > 100
4 | O=C(OCC1CCCN2CCCCC12)c1ccncc1 (configuration not stated) | > 100 | > 100 | > 100 | > 100 | > 100 | > 100 | > 100 | > 100 | > 100 | > 100 | > 100 | > 100 | > 100 | > 100 | > 100 | > 100
5 | CSc1nncc2[nH]cnc12 | > 100 | > 100 | > 100 | > 100 | > 100 | > 100 | > 100 | > 100 | > 100 | > 100 | > 100 | > 100 | > 100 | > 100 | – | –
6 | Cc1ccc([N+](=O)[O-])cc1S(=O)(=O)Nc1ccc(C2=NNC(c3cccs3)C2)cc1 (configuration not stated) | > 100 | 83.8 | > 100 | 43.4 | > 100 | 90.6 | > 100 | – | > 100 | 43.2 | 47.8 | > 100 | 63.5 | 46.3 | > 100 | > 100
7 | O=c1c(-c2ccccc2Cl)coc2cc(F)ccc12 | > 100 | 48.5 | > 100 | > 100 | > 100 | > 100 | 25 | > 100 | > 100 | > 100 | > 100 | > 100 | > 100 | > 100 | 35.3 | –
8 | Cc1ccc(S(=O)(=O)/N=C(\[O-])C2=C(c3ccccc3)NN(C)c3nc4cccc[n+]4nc32)cc1 | > 100 | > 100 | > 100 | > 100 | > 100 | > 100 | > 100 | > 100 | > 100 | – | > 100 | > 100 | > 100 | > 100 | > 100 | > 100
9 | CC1(C)C[C@H](O)[C@H](O)[C@]23C(=O)O[C@H](O)[C@H]2C(C=O)=CC[C@@H]13 | > 100 | > 100 | > 100 | > 100 | > 100 | > 100 | > 100 | > 100 | – | > 100 | > 100 | – | > 100 | > 100 | > 100 | > 100
10 | C/C(=N\O)c1cccc(Nc2nc3ccccc3c3occc23)c1 | 25.8 | 26.9 | 15.6 | 44.7 | 34.2 | 33.6 | 27.9 | 27.6 | 30.7 | 31.8 | 37.1 | – | 25.8 | 27 | 33.2 | 28.9
11 | CSc1ccc(/C=C2\N=C(c3ccccc3)N(c3nc4c(Cl)cc(Cl)cc4s3)C2=O)cc1 | 43.3 | 63.5 | 46.4 | 98.4 | > 100 | 56.3 | 36.1 | > 100 | > 100 | 40 | > 100 | 41.4 | 41.5 | 34.9 | 82.1 | –
12 | COc1ccc2c(c1)CCCN1CCc3cc(OC)c(OC)cc3C21 (configuration not stated) | > 100 | 43.2 | > 100 | > 100 | > 100 | > 100 | > 100 | > 100 | > 100 | > 100 | > 100 | – | > 100 | > 100 | > 100 | > 100
13 | COc1ccc(N=C2C(=Nc3ccc(OC)cc3)N(S(=O)(=O)c3ccccc3)C(=S)N2c2ccc(OC)cc2)cc1 | > 100 | > 100 | – | > 100 | > 100 | > 100 | > 100 | > 100 | > 100 | > 100 | > 100 | > 100 | > 100 | > 100 | – | –
14 | CC(C)(C)OC(=O)Nc1cc(-c2ccccc2)co1 | > 100 | > 100 | – | > 100 | > 100 | > 100 | > 100 | > 100 | > 100 | > 100 | > 100 | > 100 | > 100 | > 100 | > 100 | –
15 | CC(=O)NNC(=S)/N=C/c1c(O)cc(C)oc1=O | > 100 | > 100 | > 100 | > 100 | > 100 | > 100 | > 100 | > 100 | > 100 | > 100 | > 100 | > 100 | > 100 | > 100 | > 100 | –
